Assay results reported in the supplement of paper PMC10307832.

Assays:
Experiment in all cases: relative viability (nuclei count vs DMSO), 5 days (fraction); higher = more cells survive
NCI-H1793 = test system: NCI-H1793
Summary of the method: (§1)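 Medians of duplicate plates are given as relative viability. That measure is the nuclei count in treated wells divided by the count in vehicle wells. Counts were taken on 4× images of lung cancer cell lines in 1536-well plates, 5 days after pin-tool dosing the day after seeding with one drug alone or a fixed anchor-drug dose plus five library-drug doses (not always all listed) in √10 steps.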

CAL-12T = test system: CAL-12T
Summary of the method: as §1

HARA = test system: HARA
Summary of the method: as §1

NCI-H2342 = test system: NCI-H2342
Summary of the method: as §1

UMC-11 = test system: UMC-11
Summary of the method: as §1

NCI-H1648 = test system: NCI-H1648
Summary of the method: as §1

NCI-H2170 = test system: NCI-H2170
Summary of the method: as §1

LOU-NH91 = test system: LOU-NH91
Summary of the method: as §1

ABC-1 = test system: ABC-1
Summary of the method: as §1

EKVX = test system: EKVX
Summary of the method: as §1

NCI-H2347 = test system: NCI-H2347
Summary of the method: as §1

NCI-H1734 = test system: NCI-H1734
Summary of the method: as §1

LU99A = test system: LU99A
Summary of the method: as §1

HCC-78 = test system: HCC-78
Summary of the method: as §1

NCI-H522 = test system: NCI-H522
Summary of the method: as §1

HCC-366 = test system: HCC-366
Summary of the method: as §1

NCI-H1437 = test system: NCI-H1437
Summary of the method: as §1

NCI-H358 = test system: NCI-H358
Summary of the method: as §1

LXF-289 = test system: LXF-289
Summary of the method: as §1

COR-L 105 = test system: COR-L 105
Summary of the method: as §1

HCC-827 = test system: HCC-827
Summary of the method: as §1

NCI-H1915 = test system: NCI-H1915
Summary of the method: as §1

201T = test system: 201T
Summary of the method: as §1

Compound `Nc1cccc2c1CN(C1CCC(=O)NC1=O)C2=O` (stereo not drawn) [Lenalidomide] + O=C(CCCCCCC(=O)Nc1ccccc1)NO [Vorinostat] (partner 1 µM) has a relative viability (NCI-H1793; first compound 0.253 µM) of 0.739, a relative viability (NCI-H1793; first compound 2.53 µM) of 1.02 and a relative viability (NCI-H1793; first compound 8 µM) of 0.35. For the same compound, the relative viability (CAL-12T; first compound 0.253 µM) was 0.874, the relative viability (CAL-12T; first compound 0.8 µM) was 0.887 and the relative viability (CAL-12T; first compound 2.53 µM) was 0.999. It also gave a relative viability (CAL-12T; first compound 8 µM) of 0.907, a relative viability (HARA; first compound 0.253 µM) of 0.61 and a relative viability (HARA; first compound 2.53 µM) of 0.628. It also gave a relative viability (HARA; first compound 8 µM) of 0.512, a relative viability (NCI-H2342; first compound 0.253 µM) of 0.744 and a relative viability (NCI-H2342; first compound 0.8 µM) of 0.599. The relative viability (NCI-H2342; first compound 2.53 µM) was 0.923, the relative viability (NCI-H2342; first compound 8 µM) was 0.654 and the relative viability (UMC-11; first compound 0.253 µM) was 0.441. The relative viability (UMC-11; first compound 0.8 µM) was 0.378, the relative viability (UMC-11; first compound 2.53 µM) was 0.428 and the relative viability (UMC-11; first compound 8 µM) was 0.381. It also gave a relative viability (NCI-H1648; first compound 0.253 µM) of 0.513, a relative viability (NCI-H1648; first compound 2.53 µM) of 0.885 and a relative viability (NCI-H1648; first compound 8 µM) of 0.392. The relative viability (NCI-H2170; first compound 0.253 µM) was 0.883, the relative viability (NCI-H2170; first compound 0.8 µM) was 0.649 and the relative viability (NCI-H2170; first compound 2.53 µM) was 0.889. It also gave a relative viability (NCI-H2170; first compound 8 µM) of 0.626, a relative viability (LOU-NH91; first compound 0.253 µM) of 0.928 and a relative viability (LOU-NH91; first compound 0.8 µM) of 0.753. It also gave a relative viability (LOU-NH91; first compound 2.53 µM) of 0.98, a relative viability (LOU-NH91; first compound 8 µM) of 0.817 and a relative viability (ABC-1; first compound 0.253 µM) of 1.31. The relative viability (ABC-1; first compound 0.8 µM) was 1.1, the relative viability (ABC-1; first compound 2.53 µM) was 1.36 and the relative viability (ABC-1; first compound 8 µM) was 1.46. For the same compound, the relative viability (EKVX; first compound 0.253 µM) was 0.765, the relative viability (EKVX; first compound 0.8 µM) was 0.668 and the relative viability (EKVX; first compound 2.53 µM) was 0.954. It also gave a relative viability (EKVX; first compound 8 µM) of 0.636, a relative viability (NCI-H2347; first compound 0.253 µM) of 0.701 and a relative viability (NCI-H2347; first compound 0.8 µM) of 0.611. It also gave a relative viability (NCI-H2347; first compound 2.53 µM) of 0.722, a relative viability (NCI-H2347; first compound 8 µM) of 0.448 and a relative viability (NCI-H1734; first compound 0.253 µM) of 0.855. It also gave a relative viability (NCI-H1734; first compound 0.8 µM) of 0.759, a relative viability (NCI-H1734; first compound 2.53 µM) of 0.871 and a relative viability (NCI-H1734; first compound 8 µM) of 0.735. For the same compound, the relative viability (LU99A; first compound 0.253 µM) was 0.461, the relative viability (LU99A; first compound 0.8 µM) was 0.425 and the relative viability (LU99A; first compound 2.53 µM) was 0.559. It also gave a relative viability (LU99A; first compound 8 µM) of 0.263, a relative viability (HCC-78; first compound 0.253 µM) of 0.447 and a relative viability (HCC-78; first compound 0.8 µM) of 0.456. It also gave a relative viability (HCC-78; first compound 2.53 µM) of 0.474, a relative viability (HCC-78; first compound 8 µM) of 0.486 and a relative viability (NCI-H522; first compound 0.253 µM) of 0.767. For the same compound, the relative viability (NCI-H522; first compound 0.8 µM) was 0.86, the relative viability (NCI-H522; first compound 2.53 µM) was 1.09 and the relative viability (NCI-H522; first compound 8 µM) was 0.781. It also gave a relative viability (HCC-366; first compound 0.253 µM) of 0.335, a relative viability (HCC-366; first compound 0.8 µM) of 0.102 and a relative viability (HCC-366; first compound 2.53 µM) of 0.479. It also gave a relative viability (HCC-366; first compound 8 µM) of 0.265, a relative viability (NCI-H1437; first compound 0.253 µM) of 0.825 and a relative viability (NCI-H1437; first compound 0.8 µM) of 0.85. It also gave a relative viability (NCI-H1437; first compound 2.53 µM) of 0.934, a relative viability (NCI-H1437; first compound 8 µM) of 0.843 and a relative viability (NCI-H358; first compound 0.8 µM) of 0.748. For the same compound, the relative viability (NCI-H358; first compound 2.53 µM) was 0.745, the relative viability (NCI-H358; first compound 8 µM) was 0.72 and the relative viability (LXF-289; first compound 0.253 µM) was 0.812. For the same compound, the relative viability (LXF-289; first compound 0.8 µM) was 0.625, the relative viability (LXF-289; first compound 2.53 µM) was 0.798 and the relative viability (LXF-289; first compound 8 µM) was 0.838. It also gave a relative viability (COR-L 105; first compound 0.253 µM) of 0.682, a relative viability (COR-L 105; first compound 0.8 µM) of 0.863 and a relative viability (COR-L 105; first compound 2.53 µM) of 0.983. It also gave a relative viability (COR-L 105; first compound 8 µM) of 0.858, a relative viability (HCC-827; first compound 0.253 µM) of 1.04 and a relative viability (HCC-827; first compound 0.8 µM) of 0.763. For the same compound, the relative viability (HCC-827; first compound 2.53 µM) was 0.985, the relative viability (HCC-827; first compound 8 µM) was 1.06 and the relative viability (NCI-H1915; first compound 0.253 µM) was 0.478. For the same compound, the relative viability (NCI-H1915; first compound 0.8 µM) was 0.482, the relative viability (NCI-H1915; first compound 2.53 µM) was 0.601 and the relative viability (NCI-H1915; first compound 8 µM) was 0.445. The relative viability (201T; first compound 0.253 µM) was 0.963, the relative viability (201T; first compound 0.8 µM) was 0.791 and the relative viability (201T; first compound 2.53 µM) was 0.955. It also gave a relative viability (201T; first compound 8 µM) of 0.859.
